Experimental data published in patent EP0951284B1, “[…] DERIVATIVES” (priority 1996, dated 1998).
Structures can show the parent of a compound that is named as a salt.

Tests used:
[1] = molecular target: T1, Human erythrocyte acetylcholinesterase (Homo sapiens, UniProt P22303); assay: In vitro measurement of acetylcholinesterase (AChE) inhibition (Ellman method); type: biochemical; details: at time of peak activity, incubation 15 to 60 minutes at 37°C
T1 construct: Human erythrocyte acetylcholinesterase (type XIII, Sigma Israel); purchased Sigma Israel type XIII; host or cells: human erythrocytes
T1 sequence (P22303 32-617 isoform P22303-2 limits assumed): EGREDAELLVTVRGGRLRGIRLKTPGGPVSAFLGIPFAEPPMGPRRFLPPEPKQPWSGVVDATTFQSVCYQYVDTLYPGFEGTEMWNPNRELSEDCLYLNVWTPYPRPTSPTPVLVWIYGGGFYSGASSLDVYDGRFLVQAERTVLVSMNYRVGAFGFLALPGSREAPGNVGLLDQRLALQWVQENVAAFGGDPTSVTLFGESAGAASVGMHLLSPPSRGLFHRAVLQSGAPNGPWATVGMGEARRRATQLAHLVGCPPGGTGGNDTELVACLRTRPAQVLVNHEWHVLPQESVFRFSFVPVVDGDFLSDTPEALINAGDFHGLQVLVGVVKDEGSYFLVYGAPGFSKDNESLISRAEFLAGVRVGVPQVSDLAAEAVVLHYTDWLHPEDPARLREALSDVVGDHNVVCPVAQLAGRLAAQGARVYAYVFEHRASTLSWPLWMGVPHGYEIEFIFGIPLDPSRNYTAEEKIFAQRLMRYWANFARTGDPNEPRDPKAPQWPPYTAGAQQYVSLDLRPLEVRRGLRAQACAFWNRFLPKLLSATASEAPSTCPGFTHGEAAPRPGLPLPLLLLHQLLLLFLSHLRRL
Description: Human erythrocyte acetylcholinesterase (type XIII, Sigma Israel), was prepared in a stock solution of 1U/ml, containing Triton (1%) and bovine serum albumin (0.05%) in phosphate buffer (pH 8). The enzyme (0.05U) was incubated with 3-5 different concentrations of test compound (in triplicate) for periods of from 15 to 60 minutes at 37°C. […] The percentage inhibition of AChE by each concentration of drug is calculated by comparison with that of enzyme in the absence of drug.

MAO-A [2] = assay: Inhibition of MAO activity ex vivo (brain tissue), 5-HT substrate; type: in vivo, mice; details: mouse brain tissue
Description: (§1) Male Sabra mice, weighing 45-50g were injected with test compound solutions (prepared in 0.9% saline). Each dose was administered to two or three mice. The mice were sacrificed two hours after drug administration or at a time corresponding to the peak AChE inhibition time (see Table 6). The brain and liver were rapidly dissected and stored in appropriate vials on ice. The tissues were weighed, diluted to 1/20 in sucrose 0.3M and stored at -20°C before performance of the MAO assay described above. The results given in Table 6 relate to measurements made on brain tissue only.

MAO-A [3] = molecular target: T2, MAO-A (Rattus norvegicus, UniProt P21396); assay: Inhibition of MAO activity in vitro, rat brain homogenate, 5-HT substrate
T2 sequence (P21396 1-526): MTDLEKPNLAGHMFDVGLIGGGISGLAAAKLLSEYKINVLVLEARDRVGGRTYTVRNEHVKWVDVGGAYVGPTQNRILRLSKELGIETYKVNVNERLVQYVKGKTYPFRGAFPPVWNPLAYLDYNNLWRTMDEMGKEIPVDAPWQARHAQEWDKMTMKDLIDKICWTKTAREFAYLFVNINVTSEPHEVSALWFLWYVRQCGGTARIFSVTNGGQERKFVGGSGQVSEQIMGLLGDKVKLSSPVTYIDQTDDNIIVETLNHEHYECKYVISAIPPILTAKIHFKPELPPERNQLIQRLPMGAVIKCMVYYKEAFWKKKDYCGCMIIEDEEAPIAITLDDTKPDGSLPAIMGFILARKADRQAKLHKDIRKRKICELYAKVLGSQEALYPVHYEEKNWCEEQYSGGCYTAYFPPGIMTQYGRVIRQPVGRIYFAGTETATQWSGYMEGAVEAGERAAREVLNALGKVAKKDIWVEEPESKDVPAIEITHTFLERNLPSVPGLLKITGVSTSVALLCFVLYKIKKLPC
Description: The MAO enzyme source was a homogenate of rat brain in 0.3M sucrose, which was centrifuged at 600G for 15 minutes. The supernatant was diluted appropriately in 0.05M phosphate buffer, and pre-incubated with serial dilutions of test compounds for 20 minutes at 37°C. ^14C-Labeled substrates (2-phenylethylamine, hereinafter PEA; 5-hydroxytryptamine, hereinafter 5-HT) were then added, and the incubation continued for a further 20 minutes (PEA), or 30-45 minutes (5-HT). Substrate concentrations used were 50µM (PEA) and 1mM (5-HT). In the case of PEA, enzyme concentration was chosen so that not more than 10% of the substrate was metabolized during the course of the reaction. The deaminated products were extracted into toluene-ethyl acetate (1:1, v/v) containing 0.6% (w/v) 2,5-diphenyloxazole prior to determination by liquid scintillation counting. Radioactivity in the eluate indicates the production of neutral and acidic metabolites formed as a result of MAO activity. Activity of MAO in the sample was expressed as a percentage of control activity in the absence of inhibitors after subtraction of appropriate blank values The activity determined using PEA as substrate is referred to as MAO-B, and that determined using 5-HT as MAO-A.

mice = assay: Closed head injury in mice: reference memory, Morris water maze; type: in vivo; details: Morris water maze after CHI, compared to saline treated controls (Figure 1)
Description: Morris Water Maze Teat: the water maze consists of a circular aluminium pool, 1m in diameter and 60cm in depth, filled with water to a depth of 17.5cm. The hidden goal platform is a glass vessel (15cm diameter x 16. 5cm height) placed upside down at a fixed location in the pool, 1cm below the surface of the water. The water temperature is maintained at 24°C and the pool is always placed in the same position in the room to provide the same extra-maze cues. Prior to CHI (as described in Example 3 above), mice were given 3 trials per day for 5 consecutive days to establish a baseline performance - measured as the latency to find the platform from the same start location. Commencing 24hr after CHI, mice were retested daily for 2 weeks in 3 trials per day.
It appears that immediately post-CHI mice forget the location of the goal.

MAO-A [4] = molecular target: T2, MAO-A; assay: Inhibition of MAO activity following sub-acute (14 days) administration to rats, MAO-A; type: in vivo; design: from tissue; host or cells: brain, liver and intestine of Sprague Dawley rats; details: 20mg/kg daily for 14 days
Description: as §1
(§2) Experiments were done with Spague Dawley male rats. Procedures were repeated as described in Examples 2.1 and 2.2, but drug administration was continued daily for 14 days. At the end of this period animals were sacrificed and MAO levels determined in the brain, liver and intestines. Compound 17 was administered sub-cutaneously or per os at a dose of 20mg/kg.

MAO-B = molecular target: T3, MAO-B (Rattus norvegicus, UniProt P19643); assay: Inhibition of MAO activity following sub-acute (14 days) administration to rats, MAO-B; type: in vivo; design: from tissue; host or cells: brain, liver and intestine of Sprague Dawley rats; details: 20mg/kg daily for 14 days
T3 sequence (P19643 1-520): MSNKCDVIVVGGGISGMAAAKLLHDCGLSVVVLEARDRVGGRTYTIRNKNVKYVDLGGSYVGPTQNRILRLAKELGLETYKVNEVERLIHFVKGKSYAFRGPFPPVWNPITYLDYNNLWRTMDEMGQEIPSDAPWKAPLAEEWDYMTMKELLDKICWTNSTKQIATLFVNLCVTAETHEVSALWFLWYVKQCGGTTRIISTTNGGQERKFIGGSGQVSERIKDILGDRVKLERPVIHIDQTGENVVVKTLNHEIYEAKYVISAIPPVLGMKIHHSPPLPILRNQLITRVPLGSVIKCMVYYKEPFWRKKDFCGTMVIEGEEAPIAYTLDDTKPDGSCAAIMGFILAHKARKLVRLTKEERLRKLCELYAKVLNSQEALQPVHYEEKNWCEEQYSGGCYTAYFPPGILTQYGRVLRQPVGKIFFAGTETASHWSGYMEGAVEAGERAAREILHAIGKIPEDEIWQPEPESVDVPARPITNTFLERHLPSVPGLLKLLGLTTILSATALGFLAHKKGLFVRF
Description: as §1, §2

SMILES | IC50 [1] | MAO-A Inhibition Ex vivo ED50 (MAO-A [2]) | IC50 (MAO-A [3]) | latency to find the platform (mice) | inhibition at 20 mg/kg (MAO-A [4]; po, Brain) | inhibition at 20 mg/kg (MAO-A [4]; po, Intestine) | inhibition at 20 mg/kg (MAO-A [4]; po, Liver) | inhibition at 20 mg/kg (MAO-A [4]; sc, Brain) | inhibition at 20 mg/kg (MAO-A [4]; sc, Intestine) | inhibition at 20 mg/kg (MAO-A [4]; sc, Liver) | inhibition at 20 mg/kg (MAO-B; po, Brain) | inhibition at 20 mg/kg (MAO-B; po, Intestine) | inhibition at 20 mg/kg (MAO-B; po, Liver) | inhibition at 20 mg/kg (MAO-B; sc, Brain) | inhibition at 20 mg/kg (MAO-B; sc, Intestine) | inhibition at 20 mg/kg (MAO-B; sc, Liver)
C#CCN(C)CCc1cccc(OC(=O)N(C)C)c1 [Compound 12] | 880 nM | 4 µmol/kg | 380 nM | – | – | – | – | – | – | – | – | – | – | – | – | –
C#CCNC(C)Cc1cccc(OC(=O)N(C)C)c1 (stereo not shown) [Compound 16] | 370 nM | >20 µmol/kg | 7000 nM | – | – | – | – | – | – | – | – | – | – | – | – | –
C#CCNC(C)Cc1cccc(OC(=O)N(C)CC)c1 (stereo not drawn) [Compound 17, 3-(N-Me,N-Etcarbamyloxy)α-methyl, N-propargyl phenethylamine.HCl] | 36000 nM | >40 µmol/kg | 12000 nM | reduction in latency | 59% | 25% | 59% | 76% | 10% | 33% | 72% | 40% | 74% | 87% | 33% | 51%
C#CCNCCc1cccc(OC(=O)N(C)C)c1 [Compound 11] | 820 nM | 40 µmol/kg | 2500 nM | – | – | – | – | – | – | – | – | – | – | – | – | –
